This is an account of results in publication PMC12117711, “The contribution of cyclic imide stereoisomers on cereblon-dependent activity†” (Chemical Science, 2025).

Non-standard residues stand in square brackets, D forms with d. No end group written: not given here. *: point of attachment. epicN = C-terminal cyclic asparagine (aspartimide), (R)-epimer, epimer of cN, O=C1C[C@@H](N*)C(=O)N1; cQ = C-terminal cyclic glutamine (glutarimide), (S)-epimer, O=C1CC[C@H](N*)C(=O)N1; Fmoc = O=C(OCC1c2ccccc2-c2ccccc21)*

The target in one data set is His6-CRBN/DDB1 (Homo sapiens, UniProt Q96SW2). Briefly: TR-FRET ligand displacement assay (Thal-FITC tracer) with His6-CRBN/DDB1. (In general: Time-resolved FRET reads energy transfer from a long-lived donor to a nearby acceptor.)
Data set [1] concerns the target T1, BRD4(BD1)-GFP in HEK293T cells (Homo sapiens, UniProt O60885+Q96SW2).
T1 construct: HEK293T cells stably expressing BRD4(BD1) fused to GFP
Briefly: Degradation assay by flow cytometry, BRD4(BD1)-GFP. Type of data set: cell-based. The settings on record: 76 pM–20 μM, 4 h. How it is done:
(v21.1.1) and Adobe Illustrator (v24.1).
MM.1S, MOLM13, Jurkat, and BxPC3 […]
μg/mL), and 10% (v/v) FBS.
Western Blotting Procedures […]
lysates and the concentration was adjusted using lysis buffer. 5× SDS-PAGE loading buffer […]
Protein samples (8–15 μL per lane) were […]
precast gels for medium molecular weight proteins. Gels were transferred to membranes using […]
for high molecular weight proteins. Membranes were stained with Ponceau S solution to visualize transfer and protein loading.
Degradation assay by flow cytometry […]
resuspension in DMEM +/– without phenol red. For IKZF1 degradation assay, propidium […]
equipped with a high throughput sampler. […]
using the BD FACSDiva software v9.1. For each experimental condition, the arithmetic mean […]
comparing compound treatment to DMSO control.
Structural proteomics mass spectrometry sample preparation […]
sample throughout the assay duration. The same analysis was also applied to the (S)- […]
dependent activity, we adjusted the dose-response curves accordingly. Because dose- […]
within the error margins of the original curve. […]
squares F-test. This analysis determined whether there was a statistically significant […]
derived (S)-enantiomer. If there is a statistically significant difference, the null […]
Cells were treated with 1 μM MLN4924
The cells were collected and lysed in […]
centrifugation (21,000 × g, 4 °C, 10 min). […]
On the technique in general: In flow cytometry, cells or beads pass a laser one at a time.

In a further data set the test system is MOLM13 cells. The experiment in a line: Global quantitative proteomics of protein levels. Format: cell-based. To be noted: 4 h; for BRD4 protein levels by global quantitative proteomics: MOLM13 cells, 100 nM; for FC [fold change abundances (R/DMSO)] / logFC (R vs DMSO) / FC [fold change abundances (S/DMSO)] / logFC (S vs DMSO): MOLM13, 100 nM. The protocol: Global Quantitative Proteomics Sample Preparation and Mass Spectrometry Acquisition Global Quantitative Proteomics was performed according to the previously reported method.7 Briefly, 1.0×10^6 MOLM13 cells were seeded in 12-well plates and small molecules of interest were added, and cells were incubated at 37 °C, 5% CO2 for 4 hours. Cells were collected […]
15 sec in total, 11% amplitude) in lysis buffer (5% SDS in 50 mM triethylammonium bicarbonate (TEAB), pH 7.55), and cleared by centrifugation (21,000 × g, 4 °C, 10 min). After protein quantification by BCA protein assay, the lysates were diluted to 1.5 mg/mL with the lysis buffer. The diluted lysates (60 μL) were reduced by addition of dithiothreitol (20 mM) at 24 °C for 30 min then alkylated by addition of iodoacetamide (40 mM) and incubation in the dark at 24 °C for 30 min.

The conditions of data set [2]: in vitro, 0.1 M phosphate buffer (pH 7.4), 37 °C; cited from earlier work.
Data set [3] has as its target T2, His6-CRBN/DDB1 and GST-BRD4(BD2) (Homo sapiens, UniProt O60885+Q96SW2).
T2 construct: His6-CRBN/DDB1 complex and GST-BRD4 BD2 domain; purchased Epicypher (GST-BRD4(BD2)); Bristol Myers Squibb gift (His6-CRBN/DDB1) 15-0013
The experiment in a line: AlphaScreen ternary complex formation, His6-CRBN/DDB1 and GST-BRD4(BD2). Type of data set: binding. The protocol: AlphaScreen was performed according to the previously reported method.7 Briefly, for AlphaScreen of His6-CRBN/DDB1, GST-IKZF1 and (S)-, (R)- or rac-lenalidomide-d3, a solution of 100 nM His6-CRBN/DDB1 and 200 nM GST-IKZF1 in 1x AlphaScreen buffer (5 µL) and a solution of the indicated compound in 1x AlphaScreen buffer (5 µL) were added to a each well of a 384-well Optiplate and incubated at 24 °C for 1 h. To each well, a solution of 5 µL of 60 µg/mL AlphaScreen Glutathione Donor beads, 60 µg/mL AlphaLISA Nickel Chelate Donor beads in 1× AlphaScreen buffer was added to each well and incubated at 24 °C for 1 h in the dark and the plate was analyzed. For AlphaScreen of His6-CRBN/DDB1, GST-BRD4(BD2) and bivalent degraders, a solution of 750 nM His-CRBN/DDB1 and 375 nM GST-BRD4(BD2) in 1x AlphaScreen buffer (5 µL) and a solution of the indicated compound in 1x AlphaScreen buffer (5 µL) were added to a each well of a 384-well Optiplate and incubated at 24 °C for 1 h. To each well, a solution of 5 µL of 60 µg/mL AlphaScreen Glutathione Donor beads, 60 µg/mL AlphaLISA Nickel Chelate Donor beads in 1× AlphaScreen buffer was added to each well and incubated at 24 °C for 1 h in the dark and the plate was analyzed. […]
heated at 95 °C for 5 min. 10 µL of the immunoprecipitated sample was load on a 12% Tris-glycine gel and probe-labeling was visualized by fluorescence signal. Separately, 10 µL of the immunoprecipitated sample and the “input” sample were load on a 12% Tris-glycine gel and analyzed by Western blotting. […]
Parental cell lines were stably infected with a unique 24-nucleotide DNA barcode via lentiviral transduction and blasticidin selection. […] Passing barcoded lines were then pooled (20-25 cell lines per pool) based on doubling time and frozen in assay-ready vials.
Test compounds were added to 384-well plates and run at 8 pt. dose with 3-fold dilutions, the highest concentration of 25 µM in triplicate. These assay ready plates were then seeded with […]

The subject of the next data set is CRBN. More on the design: method as in PMID 29358579, PMID 32929090, PMID 25043012, PMID 25108355. The settings on record: cited from earlier work.
In data set [4] the target is His6-CRBN/DDB1 complex (UniProt Q96SW2). Briefly: AlphaScreen or HTRF; competitive TR-FRET ligand displacement assay against recombinant His6-CRBN/DDB1; KD from dose-titration of the ligand. Background: Alpha assays give light when donor and acceptor beads are brought close together.
Data set [5] has as its target T3, His6-CRBN/DDB1 complex (UniProt Q96SW2 1-442; Q16531 1-1140).
T3 construct: cereblon (CRBN), E3 ligase substrate adapter; DDB1, in complex with His6-CRBN; Column 'Protein' of S0003 says only 'CRBN'; the text and legends name His6-CRBN/DDB1 for this TR-FRET assay; also called cereblon; source: recombinant
The experiment in a line: AlphaScreen or HTRF; competitive TR-FRET ligand displacement; peptide titrated against recombinant His6-CRBN/DDB1 (2.5 nM) with the tracer Thalidomide-FITC (50 nM); KD from IC50 by the correction factor 1.426 (tracer KD 2-site 117.3 nM). To be noted: both partners purified.

Data set [6] addresses T4, His6-CRBN/DDB1 complex (UniProt Q96SW2 1-442; Q16531 1-1140).
T4 construct: cereblon (CRBN), E3 ligase substrate adapter; DDB1, in complex with CRBN; Used as a preformed complex in TR-FRET and AlphaScreen; also called cereblon; source: recombinant
The experiment in a line: AlphaScreen or HTRF; competitive TR-FRET ligand displacement assay against recombinant His6-CRBN/DDB1; KD from dose-titration of the ligand. The settings on record: both partners purified.

Setting [7] is: KD, competitive TR-FRET, His6-CRBN/DDB1.

In the case of `[2H]C1([2H])C[C@@]([2H])(N2Cc3cc(NC(=O)CCCCCCCCNC(=O)C[C@@H]4N=C(c5ccc(Cl)cc5)c5c(sc(C)c5C)-n5c(C)nnc54)ccc3C2=O)C(=O)NC1=O` [JQ1-(R)-Len-d3], the Kd (commonly a measure of binding affinity in units of concentration) on His6-CRBN/DDB1 (setting [7]) was found to be 79 nM. Also, in data set [1], the “degradation of BRD4(BD1)-GFP” value was “limited activity”. In the data set with MOLM13 cells, the “BRD4 protein levels by global quantitative proteomics” value was “unperturbed”. The “FC [fold change abundances (R/DMSO)]” value is recorded as 3.475 in the data set with MOLM13 cells (protein ARID1A); 0.9606 in the data set on MOLM13 cells (protein CAB39); 1.596 with MOLM13 cells (protein FLII); 1.064 with MOLM13 cells (protein FUBP3); 1.273 with MOLM13 cells (protein TPD52). In addition, the “logFC (R vs DMSO)” value came out at 1.826 in the data set on MOLM13 cells (protein ARID1A); 0.2309 in the data set with MOLM13 cells (protein CAB39); 0.7992 in the data set on MOLM13 cells (protein FLII); 0.3358 with MOLM13 cells (protein FUBP3); 0.5322 in the data set with MOLM13 cells (protein TPD52).
`O=C1CC[C@@H](N2C(=O)c3ccccc3C2=O)C(=O)N1` [(R)-thalidomide]: in data set [2], the “t50%ee (racemization half-life)” value is listed as 2.9 h.
`[2H]C1([2H])C[C@]([2H])(N2Cc3cc(NC(=O)CCCCCCCCNC(=O)C[C@@H]4N=C(c5ccc(Cl)cc5)c5c(sc(C)c5C)-n5c(C)nnc54)ccc3C2=O)C(=O)NC1=O` [JQ1-(S)-Len-d3]: in data set [3], the “ternary complex formation between His6-CRBN/DDB1 and GST-BRD4(BD2)” value is “promoted a significant ternary complex formation”. Moreover, the Kd was below 1 nM on His6-CRBN/DDB1 (setting [7]) and 2.9 ± 0.2 nM at His6-CRBN/DDB1 (predicted KD of the (S)-stereoisomer, ligand displacement assay adjusted for (S)-stereoisomer, (S)-stereoisomer in the (S)-sample, corrected for racemization). The “degradation of BRD4(BD1)-GFP” value in data set [1] was “depleted BRD4 in a dose-dependent manner”. Besides, in the data set with MOLM13 cells, the “BRD4 protein levels by global quantitative proteomics” value is “most significantly downregulated protein”. Besides, the “FC [fold change abundances (S/DMSO)]” value is -1.354 with MOLM13 cells (protein BRD4); 2.54 in the data set on MOLM13 cells (protein BRI3BP); 1.053 in the data set with MOLM13 cells (protein C8orf33); 1.127 in the data set with MOLM13 cells (protein KPNA3); 1.009 in the data set on MOLM13 cells (protein PSME2). Also, the “logFC (S vs DMSO)” value is reported as -0.6026 in the data set with MOLM13 cells (protein BRD4); 1.398 in the data set on MOLM13 cells (protein BRI3BP); 0.3248 with MOLM13 cells (protein C8orf33); 0.397 with MOLM13 cells (protein KPNA3); 0.2805 in the data set on MOLM13 cells (protein PSME2).
As for `O=C1CC[C@H](N2C(=O)c3ccccc3C2=O)C(=O)N1` [(S)-thalidomide], the “fold greater binding affinity to CRBN than (R)-thalidomide” value in the data set on CRBN was “approximately 10 fold”.

B1: Fmoc-GGGFepicN (peptide)
peptide: Fmoc-GGGF[epicN]
notes: pentapeptide; source: synthetic peptide
Turning to B1, in the data set with His6-CRBN/DDB1 complex [4], the Kd is 2870 nM. Further, in the data set with His6-CRBN/DDB1 complex [5], the IC50 – broadly, the concentration that gives 50% inhibition – stood at 4.09 µM.

B2: Fmoc-GGGFcQ (peptide)
peptide: Fmoc-GGGF[cQ]
notes: pentapeptide bearing the (S)-epimer of cyclic glutamine at the C-terminus; also called FcQ pentapeptide; source: synthetic peptide
As for B2, the Kd in the data set with His6-CRBN/DDB1 complex [6] was determined as 89 nM.
